These results are taken from ChEMBL document CHEMBL4340538, “Cynaropicrin and inhibition of NF-κB activation: A structure activity relationship study” (Bioorg Med Chem Lett, 2019).

Common to all, as to type: cell-based
For data set [1], the system named is HEK293. Put plainly: Cytotoxicity against human HEK293 cells at 0.75 uM to 3 uM after 7 hrs by WST-8 assay. Conditions: hek293, 7 h. On the technique in general: Tetrazolium assays rely on reduction of a dye to a coloured formazan, in cell work by metabolically active cells.
For data set [2], the system named is HEK293. Put plainly: Inhibition of TNFalpha-induced NFkappaB activation in human HEK293 cells expressing pGL4.32 [luc2p/NF-kBRE/Hygro] assessed as NFkappaB activity by measuring relative light units at 1.5 uM incubated for 2 hrs followed by TNFalpha addition and measured after 5 hrs by luciferase reporter gene assay. (A reporter such as luciferase makes a cellular process visible.)

The test system of data set [3] is HEK293. Briefly: Inhibition of TNFalpha-induced NFkappaB activation in human HEK293 cells expressing pGL4.32 [luc2p/NF-kBRE/Hygro] assessed as NFkappaB activity by measuring relative light units at 0.75 uM incubated for 2 hrs followed by TNFalpha addition and measured after 5 hrs by luciferase reporter gene assay.
The subject of data set [4] is HEK293. Briefly: Inhibition of TNFalpha-induced NFkappaB activation in human HEK293 cells expressing pGL4.32 [luc2p/NF-kBRE/Hygro] assessed as NFkappaB activity by measuring relative light units at 3 uM incubated for 2 hrs followed by TNFalpha addition and measured after 5 hrs by luciferase reporter gene assay.
Data set [5] relates to HEK293. Put plainly: Inhibition of TNFalpha-induced NFkappaB activation in human HEK293 cells expressing pGL4.32 [luc2p/NF-kBRE/Hygro] at 2.5 uM to 10 uM incubated for 2 hrs followed by TNFalpha addition and measured after 5 hrs by luciferase reporter gene assay.
Data set [6] has as its system HEK293. Briefly: Cytotoxicity against human HEK293 cells at 3 uM after 7 hrs by WST-8 assay. Conditions: hek293, 7 h.
Data set [7] concerns HEK293. Put plainly: Inhibition of TNFalpha-induced NFkappaB activation in human HEK293 cells expressing pGL4.32 [luc2p/NF-kBRE/Hygro] at 80 uM incubated for 2 hrs followed by TNFalpha addition and measured after 5 hrs by luciferase reporter gene assay.

Active and inactive are the calls of the source. No cut-off for these calls is given here.

Turning to `C=C(CO)C(=O)O[C@H]1CC(=C)[C@@H]2C[C@H](O)C(=C)[C@@H]2[C@H]2OC(=O)C(=C)[C@@H]21` [CYNAROPICRIN], the Activity entry is “Non-Toxic” in data set [1]; 72.8 RLU in data set [2]; 134 RLU in data set [3]; 5.67 RLU in data set [4]; “Non-Toxic” in data set [6]. Moreover, the inhibition result in data set [5] is “Active”.
Regarding `C=C(COC(C)=O)C(=O)O[C@H]1CC(=C)[C@@H]2C[C@H](O)C(=C)[C@@H]2[C@H]2OC(=O)C(=C)[C@@H]21`, the Activity result in data set [1] is “Non-Toxic”; in data set [2] it was 110 RLU; in data set [3] it was 130 RLU; in data set [4], 33.8 RLU; in data set [6], “Non-Toxic”.
With `C=C1C(=O)O[C@@H]2[C@H]3C(=C)[C@@H](OCOC)C[C@H]3C(=C)C[C@H](O)[C@@H]12`, the Activity result in data set [1] is “Non-Toxic”; in data set [2], 125 RLU; in data set [3] it was 127 RLU; in data set [4] it was 100 RLU; in data set [6], “Non-Toxic”.
`C=C(COC(C)=O)C(=O)O[C@H]1CC(=C)[C@@H]2C[C@H](OC(C)=O)C(=C)[C@@H]2[C@H]2OC(=O)C(=C)[C@@H]21`: the Activity result was “Non-Toxic” in data set [1]; 142 RLU in data set [2]; 171 RLU in data set [3]; 93.5 RLU in data set [4]; “Non-Toxic” in data set [6].
For the compound `C=C(COCOC)C(=O)O[C@H]1CC(=C)[C@@H]2C[C@H](OCOC)C(=C)[C@@H]2[C@H]2OC(=O)C(=C)[C@@H]21`, the Activity entry in data set [1] was “Non-Toxic”; in data set [2], 98.3 RLU; in data set [3], 154 RLU; in data set [4], 8.97 RLU; in data set [6], “Non-Toxic”.
Take `C=C1C(=O)O[C@@H]2[C@H]3C(=C)[C@@H](O)C[C@H]3C(=C)C[C@H](O)[C@@H]12` [DESACYLCYNAROPICRIN]: the Activity entry is “Non-Toxic” in data set [1]; 119 RLU in data set [2]; 127 RLU in data set [3]; 96.4 RLU in data set [4]; “Non-Toxic” in data set [6].
`C=C(COC)C(=O)O[C@H]1CC(=C)[C@@H]2C[C@H](O)C(=C)[C@@H]2[C@H]2OC(=O)C(=C)[C@@H]21`: the Activity entry in data set [1] was “Non-Toxic”; in data set [2], 151 RLU; in data set [3] it was 161 RLU; in data set [4], 137 RLU; in data set [6] it was “Non-Toxic”.
As to `C=C(COC)C(=O)O[C@H]1CC(=C)[C@@H]2C[C@H](OC)C(=C)[C@@H]2[C@H]2OC(=O)C(=C)[C@@H]21`, the Activity result in data set [1] is “Non-Toxic”; in data set [2], 158 RLU; in data set [3], 174 RLU; in data set [4], 134 RLU; in data set [6], “Non-Toxic”.
Turning to `S=C(S)N1CCCC1`, in data set [7], the inhibition entry is “Active”.
In the case of `C=C1[C@@H]2[C@H]3OC(=O)C(C)[C@@H]3[C@@H](OC(=O)C(C)CO)CC(=C)[C@@H]2C[C@@H]1O` (some centres not stated), the Activity entry in data set [1] is “Non-Toxic”; in data set [2] it was 139 RLU; in data set [3] it was 123 RLU; in data set [4] it was 137 RLU; in data set [6] it was “Non-Toxic”.
Take `C=C1C(=O)O[C@@H]2[C@H]3C(=C)[C@@H](O)C[C@H]3C(=C)C[C@H](OC(=O)C(C)CO)[C@@H]12` (some centres not stated): the Activity result in data set [1] was “Non-Toxic”; in data set [2], 135 RLU; in data set [3], 123 RLU; in data set [4], 137 RLU; in data set [6], “Non-Toxic”.
